Reference: patent publication US20240301409A1, “Chemically Modified Small Activating RNA” (RACTIGEN THERAPEUTICS, priority 2021, published 2024)
Oligonucleotides are written 5' to 3', each unit as a sugar letter and its base; * is a phosphorothioate linkage, no mark a phosphodiester; rarer units and linkages stand in square brackets, end groups in braces. Plain capitals give the bases only. m = 2'-O-methyl; r = 2'-OH (RNA); f = 2'-fluoro

Assays:
T24 cells = experiment: Cellular proliferation assay (CCK8) in T24 cells, alone and combined with Mitomycin C or valrubicin; type: cell-based, human
Description: After the transfection, the number of viable cells was detected with a CCK8 kit, and plotted as the percentage of the blank control treatment group. […] A transfection sample without oligonucleotide served as a blank control. Non-specific duplex (dsCon) transfected sample served as a negative control. Data are presented as mean±SD of at least two independent experiments. The values below the dashed line indicate stronger growth inhibitory activity compared to duplex Rag1-40 without chemical modification.
T24 cells were transfected with RAG1-40-31 at concentrations of 0.1, 0.5, 1, 5, 10, 25 and 50 nM for 24 hours, and then Mitomycin C was added at concentrations of 1, 10, 100, 1000 and 10000 nM. The combined treatment was carried out with concentrations in pairs. After treatment, the cellular proliferation was detected by CCK8 kit. FIGS. 16A-16B show the relative proliferation proportion of T24 cells after the combined treatment with chemically modified saRNA RAG1-40-31 and valrubicin. […] Control and DMSO are the blank transfection control and the solvent for dilution control, respectively.
T24 cells were transfected with RAG1-40-31 at concentrations of 0.1, 0.5, 1, 5, 10, 25 and 50 nM for 24 hours, and then valrubicin at concentrations of 1, 10, 100, 1000 and 10000 nM was added. The combined treatment was carried out with concentrations in pairs. After treatment, the cellular proliferation was detected by CCK8 kit.
(§1) Human bladder cancer cells Ku-7-LG (ATCC), J82 (ATCC) and T24 (ATCC) were cultured in McCoy medium (Gibco) comprising 10% calf serum (Sigma-Aldrich) and 1% penicillin/Streptomycin (Gibco). Cells were cultured at 37° C. under 5% CO2. Ku-7-LG, J82 and T24 cells were plated into 12-well plates at 10×10^4 cells per well, transfected with the small RNA at a concentration of 10 nM (unless otherwise specified) for three days, using RNAiMax (Invitrogen, Carlsbad, CA) according to the manufacturer's instructions. Two replicate wells were set for each treatment.
(§2) Cells were plated in a 96-well plate at 2˜4×10^3 cells/well, cultured overnight, and transfected with the oligonucleotide duplexes. Three days after transfection, CCK8 (Dojindo) was used to detect cellular proliferation following manufacturer's instructions. The experimental steps are briefly described as follows: 10 μL of CCK8 solution was added to each well, incubated at 37° C. for 1 hour, and then the absorbance at 450 nm was measured using a microplate reader.
It is known that p21 induction by saRNA is that a variety of tumor suppressor factors such as p21 protein suppress the proliferation of cancer cells. To evaluate the effect of chemically modified saRNAs on the function of cancer cells, cells (Ku-7-LG and T24) were transfected with 10 nM unmodified and modified saRNAs for 72 hours, and the cellular proliferation was determined by CCK8. […] Furthermore, there was a correlation between RNA activating activity (FIGS. 7A-7B) and suppression of cellular proliferation activity (FIGS. 8A-8B). Strong p21 activators are usually also strong cytostatics.

J82 cells = experiment: Cellular proliferation assay (CCK8) in J82 cells, combined with Mitomycin C or valrubicin; type: cell-based, human
Method: J82 cells were transfected with RAG1-40-31 at concentrations of 0.1, 0.5, 1, 5, 10, 25 and 50 nM for 24 hours, and then Mitomycin C at concentrations of 1, 10, 100, 1000 and 10000 nM was added. The combined treatment was carried out with concentrations in pairs. After treatment, the proliferation of cells was detected using CCK8 kit. FIGS. 14A-14B show the relative proliferation proportion of J82 cells after the combined treatment with chemically modified saRNA RAG1-40-31 and valrubicin. […] Control and DMSO are the blank transfection control and the solvent for dilution control, respectively.
J82 cells were transfected with RAG1-40-31 at concentrations of 0.1, 0.5, 1, 5, 10, 25 and 50 nM for 24 hours, and then valrubicin at concentrations of 1, 10, 100, 1000 and 10000 nM was added. The combined treatment was carried out with concentrations in pairs. After treatment, the cellular proliferation was detected by CCK8 kit. FIGS. 15A-15B show the relative proliferation proportion of T24 cells after the combined treatment with chemically modified saRNA RAG1-40-31 and Mitomycin C. […] Control and DMSO are the blank transfection control and the solvent for dilution control, respectively.
as §1, §2
In this example, chemically modified saRNA RAG1-40-31 was used in combination with clinical chemical agents to evaluate the suppressing effect of the combined agents on cancer cells.

[1] = tested on: Rag1-40 target sequence in the 3′ UTR of firefly luciferase, COS-1 cells
Method: A 26 bp fragment comprising the target site of Rag1-40 was cloned in the antisense orientation into the 3′ UTR region of the firefly luciferase gene in a pmirGLO dual luciferase vector. Vector plasmids were co-transfected with the indicated saRNAs into COS-1 cells. Cells were lysed 48 hours after transfection, and the resulting lysates were assessed for luciferase activity. Data represent mean±SD of at least two independent experiments. Dashed line represents comparisons to blank control (top dashed line) and Rag1-40 (bottom dashed line). Values close to the top dashed line indicate no off-target effect.
A 26 bp fragment comprising the Rag1-40 target sequence was cloned in the antisense orientation into a multiple cloning site (MCS) of the 3′ untranslated region of firefly luciferase of the pmirGLO dual luciferase vector (Promega, Fitchburg, WI), to obtain pOff-Target plasmid. Following E. coli transformation and overnight incubation, plasmids for each construct were prepared by standard method. Each plasmid was transfected into COS-1 monkey kidney epithelial cells using Lipofectamine 3000 (Invitrogen, Carlsbad, CA). Subsequently, saRNA was transfected using RNAiMAX. After 24 hours of incubation, COS-1 cells were lysed with 1× lysis buffer, and luciferase activity was measured using dual luciferase reporter gene assay system (Promega, WI, USA) following manufacturer's instructions.
To assess the off-target effects of unmodified and modified saRNAs, a sequence complementary to the sense oligonucleotide strand of Rag1-40 was cloned into the 3′UTR region of the luciferase gene in a pmirGLO dual luciferase vector. The vector plasmid was co-transfected with the saRNA into COS-1 cells. Cells were lysed 48 hours after transfection and the resulting lysates were assessed for luciferase activity.

RNase A = molecular target: T1, RNase A (Bos taurus, UniProt P61823)
T1 sequence (P61823 27-150): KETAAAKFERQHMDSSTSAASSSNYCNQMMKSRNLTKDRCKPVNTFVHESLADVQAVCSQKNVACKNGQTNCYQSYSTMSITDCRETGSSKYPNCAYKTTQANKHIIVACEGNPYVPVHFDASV
Method: The duplexes obtained at each time point above were each added to 1 μL of 10× loading buffer, and then frozen in liquid nitrogen. After incubation, all samples were detected for the double-stranded RNA by 4% agarose gel electrophoresis, and the content of each duplex was analyzed by Image J software.
The duplexes obtained at each time point indicated above were each added to 1 μL of 10× loading buffer, and then frozen in liquid nitrogen. After incubation, all samples were detected for the double-stranded RNA by 4% agarose gel electrophoresis, and the content of each duplex was analyzed by Image J software.
saRNA (1.5 μL, 10 μM) was incubated at a final concentration of 0.02 mg/mL in PBS in the presence of RNase A (Amresco, OH, USA) at 37° C. for different durations. At the end of the incubation, the mixture was snap frozen in liquid nitrogen to stop nuclease activity. Samples were analyzed on a 4% agarose gel and examined for duplex degradation.
All chemically modified duplexes (Rag1-40-1 to Rag1-40-32) were incubated with 0.02 μg/L of RNase A for different durations (0 to 96 hours). At the end of the incubation, the size and amount of duplexes were detected by agarose gel electrophoresis.

CO[C@@]12[C@H](COC(N)=O)C3=C(C(=O)C(C)=C(N)C3=O)N1C[C@@H]1N[C@@H]12 [MMC, Mitomycin C, reference compound]
Relative proliferation proportion of T24 cells (T24 cells; RAG1-40-31 0 nM + MMC 1 nM): 100.0%
Relative proliferation proportion of T24 cells (T24 cells; RAG1-40-31 0 nM + MMC 10 nM): 100.0%
Relative proliferation proportion of T24 cells (T24 cells; RAG1-40-31 0 nM + MMC 100 nM): 100.0%
Relative proliferation proportion of T24 cells (T24 cells; RAG1-40-31 0 nM + MMC 1000 nM): 100.0%
Relative proliferation proportion of T24 cells (T24 cells; RAG1-40-31 0 nM + MMC 10000 nM): 100.0%
Relative proliferation proportion of J82 cells (J82 cells; RAG1-40-31 0 nM + MMC 1 nM): 99.9%
Relative proliferation proportion of J82 cells (J82 cells; RAG1-40-31 0 nM + MMC 10 nM): 99.9%
Relative proliferation proportion of J82 cells (J82 cells; RAG1-40-31 0 nM + MMC 100 nM): 99.9%
Relative proliferation proportion of J82 cells (J82 cells; RAG1-40-31 0 nM + MMC 1000 nM): 100.0%
Relative proliferation proportion of J82 cells (J82 cells; RAG1-40-31 0 nM + MMC 10000 nM): 100.0%

CCCCC(=O)OCC(=O)[C@]1(O)Cc2c(O)c3c(c(O)c2[C@@H](O[C@H]2C[C@H](NC(=O)C(F)(F)F)[C@H](O)[C@H](C)O2)C1)C(=O)c1c(OC)cccc1C3=O [valrubicin, Valrubicin, reference compound]
Relative proliferation proportion of T24 cells (T24 cells; RAG1-40-31 0 nM + valrubicin 1 nm): 100.0%
Relative proliferation proportion of T24 cells (T24 cells; RAG1-40-31 0 nM + valrubicin 10 nm): 100.0%
Relative proliferation proportion of T24 cells (T24 cells; RAG1-40-31 0 nM + valrubicin 100 nm): 100.0%
Relative proliferation proportion of T24 cells (T24 cells; RAG1-40-31 0 nM + valrubicin 1000 nm): 100.0%
Relative proliferation proportion of T24 cells (T24 cells; RAG1-40-31 0 nM + valrubicin 10000 nm): 100.0%
Relative proliferation proportion of J82 cells (J82 cells; RAG1-40-31 0 nM + valrubicin 1 nM): 100.0%
Relative proliferation proportion of J82 cells (J82 cells; RAG1-40-31 0 nM + valrubicin 10 nM): 100.0%
Relative proliferation proportion of J82 cells (J82 cells; RAG1-40-31 0 nM + valrubicin 100 nM): 100.0%
Relative proliferation proportion of J82 cells (J82 cells; RAG1-40-31 0 nM + valrubicin 1000 nM): 100.0%
Relative proliferation proportion of J82 cells (J82 cells; RAG1-40-31 0 nM + valrubicin 10000 nM): 100.0%

Rag1-40-2: saRNA duplex: sense mCmCAACUCAUUCUCCAAGmUmC (SEQ ID NO 5); antisense fUACUfUGGAGAAfUGAGUfUGGfCA (SEQ ID NO 7) (sense CCAACUCAUUCUCCAAGUC; antisense UACUUGGAGAAUGAGUUGGCA; 2'-OMe and 2'-F modifications; modified_base (1)..(19) (1,2,18,19)=2′-O-methyl(2′-OMe); modified_base (1)..(20) (1,5,12,17,20)=2′-fluoro)
off-target effect compared to unmodified Rag1-40, in words [1]: mitigated or similar off-target effects
time to complete degradation (RNase A): ≤ 24 h

Rag1-40-4: saRNA duplex: sense mCmCAACUCAUUCUCCAAGmUmC (SEQ ID NO 5); antisense fUACUfUGGAGAAfUGAGUfUGG*fC*A (SEQ ID NO 9) (sense mCmCrArArCrUrCrArUrUrCrUrCrCrArArGmUmC; antisense fUrArCrUfUrGrGrArGrArAfUrGrArGrUfUrGrG*fC*rA)
off-target effect compared to unmodified Rag1-40, in words [1]: completely inhibited
time to complete degradation (RNase A): ≤ 24 h

Rag1-40-6: saRNA duplex: sense mCmCAACUCAUUCUCCAAGmUmC (SEQ ID NO 5); antisense fU*A*fCfUfUGGAGAAfUGAGfUfUGG*fC*A (SEQ ID NO 11) (sense mCmCrArArCrUrCrArUrUrCrUrCrCrArArGmUmC; antisense fU*rA*fCfUfUrGrGrArGrArAfUrGrArGfUfUrGrG*fC*rA)
off-target effect compared to unmodified Rag1-40, in words [1]: mitigated or similar off-target effects
degradation of duplex at 96 hours (RNase A): little or no signs of degradation

Rag1-40-7: saRNA duplex: sense mCmCAACUCAUUCUCCAAGmUmC (SEQ ID NO 5); antisense U*A*fCfUfUGGAGAAfUGAGfUfUGG*fC*A (SEQ ID NO 12) (sense mCmCrArArCrUrCrArUrUrCrUrCrCrArArGmUmC; antisense rU*rA*fCfUfUrGrGrArGrArAfUrGrArGfUfUrGrG*fC*rA)
off-target effect compared to unmodified Rag1-40, in words [1]: mitigated or similar off-target effects
degradation of duplex at 96 hours (RNase A): little or no signs of degradation

Rag1-40-10: saRNA duplex: sense fCfCAACUCAUUCUCCAAGfUfC (SEQ ID NO 14); antisense fUACUfUGGAGAAfUGAGUfUGGfCA (SEQ ID NO 7) (sense CCAACUCAUUCUCCAAGUC; antisense UACUUGGAGAAUGAGUUGGCA; 2'-F modifications; modified_base (1)..(19) (1,2,18,19)=2′-fluoro; modified_base (1)..(20) (1,5,12,17,20)=2′-fluoro)
off-target effect compared to unmodified Rag1-40, in words [1]: completely inhibited
time to complete degradation (RNase A): ≤ 24 h

Rag1-40-12: saRNA duplex: sense fCfCAACUCAUUCUCCAAGfUfC (SEQ ID NO 14); antisense fUACUfUGGAGAAfUGAGUfUGG*fC*A (SEQ ID NO 9) (sense CCAACUCAUUCUCCAAGUC; antisense UACUUGGAGAAUGAGUUGGCA; 2'-F and phosphorothioate modifications; modified_base (1)..(19) (1,2,18,19)=2′-fluoro; modified_base (1)..(20) (1,5,12,17,20)=2′-fluoro; modified_base (19)..(21) (19,20,21)=phosphorothioate (PS) backbone modification)
off-target effect compared to unmodified Rag1-40, in words [1]: mitigated or similar off-target effects
time to complete degradation (RNase A): ≤ 24 h

Rag1-40-18: saRNA duplex: sense mCmCAACUCAUUCUCCAAG*U*C (SEQ ID NO 15); antisense fUACUfUGGAGAAfUGAGUfUGGfCA (SEQ ID NO 7) (sense CCAACUCAUUCUCCAAGUC; antisense UACUUGGAGAAUGAGUUGGCA; 2'-OMe, 2'-F, phosphorothioate modifications; modified_base (1)..(2) (1,2)=2′-O-methyl(2′-OMe); modified_base (17)..(19) (17,18,19)=phosphorothioate (PS) backbone modification; modified_base (1)..(20) (1,5,12,17,20)=2′-fluoro)
off-target effect compared to unmodified Rag1-40, in words [1]: mitigated or similar off-target effects
time to complete degradation (RNase A): ≤ 24 h

Rag1-40-20: saRNA duplex: sense mCmCAACUCAUUCUCCAAG*U*C (SEQ ID NO 15); antisense fUACUfUGGAGAAfUGAGUfUGG*fC*A (SEQ ID NO 9) (sense CCAACUCAUUCUCCAAGUC; antisense UACUUGGAGAAUGAGUUGGCA; 2'-OMe, 2'-F, phosphorothioate modifications; modified_base (1)..(2) (1,2)=2′-O-methyl(2′-OMe); modified_base (17)..(19) (17,18,19)=phosphorothioate (PS) backbone modification; modified_base (1)..(20) (1,5,12,17,20)=2′-fluoro; modified_base (19)..(21) (19,20,21)=phosphorothioate (PS) backbone modification)
off-target effect compared to unmodified Rag1-40, in words [1]: mitigated or similar off-target effects
time to complete degradation (RNase A): ≤ 24 h
